Assay results: ChEMBL document CHEMBL3608278 (J Med Chem, 2015)
Bridge positions count the residues as written; N and C are the ends. Square brackets hold non-standard residues; d marks the D form. Peptide text beside a SMILES is read from it. 1Nal = N[C@@H](Cc1cccc2ccccc12)C(=O)O

Legend:
[1] = biological target: T1, Potassium voltage-gated channel subfamily A member 3 (Homo sapiens, UniProt P22001); format: cell-based, CHO-K1
[2] = biological target: T1, Potassium voltage-gated channel subfamily A member 3; assay: cell-based; set-up: species or system Blood
[3] = biological target: T1, Potassium voltage-gated channel subfamily A member 3; set-up: species or system Blood

T1 sequence (P22001 whole entry): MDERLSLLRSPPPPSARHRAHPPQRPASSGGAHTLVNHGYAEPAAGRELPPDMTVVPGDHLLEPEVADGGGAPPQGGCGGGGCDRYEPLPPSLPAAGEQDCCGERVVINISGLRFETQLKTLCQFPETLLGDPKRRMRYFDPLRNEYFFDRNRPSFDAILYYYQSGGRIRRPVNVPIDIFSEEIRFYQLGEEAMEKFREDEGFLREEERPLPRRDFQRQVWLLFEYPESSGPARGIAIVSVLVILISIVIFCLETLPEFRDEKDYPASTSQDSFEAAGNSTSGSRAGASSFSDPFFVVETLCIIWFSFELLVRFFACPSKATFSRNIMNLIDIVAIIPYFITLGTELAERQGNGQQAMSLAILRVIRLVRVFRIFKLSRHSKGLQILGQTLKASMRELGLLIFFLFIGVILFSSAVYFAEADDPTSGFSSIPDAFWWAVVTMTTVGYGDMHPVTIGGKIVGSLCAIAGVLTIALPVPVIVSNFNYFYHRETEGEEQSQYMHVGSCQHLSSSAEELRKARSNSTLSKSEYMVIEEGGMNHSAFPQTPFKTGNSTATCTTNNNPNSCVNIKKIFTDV

## CC[C@H](C)[C@@H]1NC(=O)[C@@H](NC(=O)[C@H](CO)NC(=O)[C@@H](N)CCCNC(=N)N)CSSC[C@@H](C(=O)O)NC(=O)[C@H]([C@@H](C)O)NC(=O)CNC(=O)[C@@H]2CSSC[C@@H]3NC(=O)[C@H](CCC(N)=O)NC(=O)[C@H](Cc4ccccc4)NC(=O)[C@H](C)NC(=O)[C@H]([C@@H](C)O)NC(=O)[C@H](CSSC[C@H](NC(=O)[C@H](Cc4ccccc4)NC(=O)[C@H](CO)NC(=O)[C@H](CC(C)C)NC(=O)[C@H](CCCNC(=N)N)NC(=O)[C@H](Cc4ccc(O)cc4)NC(=O)[C@H](CCCCN)NC(=O)[C@H](CCC(=O)O)NC(=O)[C@H](CO)NC(=O)[C@H](Cc4cnc[nH]4)NC(=O)[C@H](CCCCN)NC3=O)C(=O)N[C@@H](CCCNC(=N)N)C(=O)N[C@@H](CCCCN)C(=O)N[C@@H]([C@@H](C)O)C(=O)N2)NC(=O)[C@H](CCCNC(=N)N)NC(=O)[C@H](CO)NC(=O)[C@H](CCCCN)NC(=O)[C@@H]2CCCN2C(=O)[C@H]([C@@H](C)CC)NC(=O)[C@H]([C@@H](C)O)NC(=O)[C@H](CC(=O)O)NC1=O
[1]
  IC50: > 3330 pM
[2]
  IC50: 18500 pM
[3]
  IC50: 28100 pM

## CC[C@H](C)[C@@H]1NC(=O)[C@@H](NC(=O)[C@H](CO)NC(=O)[C@@H](N)CCCNC(=N)N)CSSC[C@@H](C(=O)O)NC(=O)[C@H]([C@@H](C)O)NC(=O)CNC(=O)[C@@H]2CSSC[C@@H]3NC(=O)[C@H](CCC(N)=O)NC(=O)[C@H](Cc4ccccc4)NC(=O)[C@H](C)NC(=O)[C@H]([C@@H](C)O)NC(=O)[C@H](CSSC[C@H](NC(=O)[C@H](Cc4ccccc4)NC(=O)[C@H](CO)NC(=O)[C@H](CC(C)C)NC(=O)[C@H](CCCNC(=N)N)NC(=O)[C@H](Cc4ccc(O)cc4)NC(=O)[C@H](CCCCN)NC(=O)[C@H](CCSC)NC(=O)[C@H](CO)NC(=O)[C@H](Cc4c[nH]cn4)NC(=O)[C@H](CCCCN)NC3=O)C(=O)N[C@@H](CCCNC(=N)N)C(=O)N[C@@H](CCCCN)C(=O)N[C@@H]([C@@H](C)O)C(=O)N2)NC(=O)[C@H](CCCNC(=N)N)NC(=O)[C@H](CO)NC(=O)[C@H](CCCCN)NC(=O)[C@@H]2CCCN2C(=O)[C@H]([C@@H](C)CC)NC(=O)[C@H](CCCCN)NC(=O)[C@H](CC(=O)O)NC1=O
[1]
  IC50: 129 pM
[2]
  IC50: 117 pM
[3]
  IC50: 210 pM

## CC[C@H](C)[C@@H]1NC(=O)[C@@H](NC(=O)[C@H](CO)NC(=O)[C@@H](N)CCCNC(=N)N)CSSC[C@@H](C(=O)O)NC(=O)[C@H]([C@@H](C)O)NC(=O)CNC(=O)[C@@H]2CSSC[C@@H]3NC(=O)[C@H](CCC(N)=O)NC(=O)[C@H](Cc4ccccc4)NC(=O)[C@H](C)NC(=O)[C@H]([C@@H](C)O)NC(=O)[C@H](CSSC[C@H](NC(=O)[C@H](Cc4ccccc4)NC(=O)[C@H](CO)NC(=O)[C@H](CC(C)C)NC(=O)[C@H](CCCNC(=N)N)NC(=O)[C@H](Cc4ccc(O)cc4)NC(=O)[C@H](CCCCN)NC(=O)[C@H](CCSC)NC(=O)[C@H](CO)NC(=O)[C@H](Cc4cnc[nH]4)NC(=O)[C@H](CCCCN)NC3=O)C(=O)N[C@@H](CCCNC(=N)N)C(=O)N[C@@H](C)C(=O)N[C@@H]([C@@H](C)O)C(=O)N2)NC(=O)[C@H](CCCNC(=N)N)NC(=O)[C@H](CO)NC(=O)[C@H](CCCCN)NC(=O)[C@@H]2CCCN2C(=O)[C@H]([C@@H](C)CC)NC(=O)[C@H]([C@@H](C)O)NC(=O)[C@H](CC(=O)O)NC1=O
[1]
  IC50: 173 pM
[2]
  IC50: 186 pM
[3]
  IC50: 308 pM

## CC[C@H](C)[C@@H]1NC(=O)[C@@H](NC(=O)[C@H](CO)NC(=O)[C@@H](N)CCCNC(=N)N)CSSC[C@@H](C(=O)O)NC(=O)[C@H]([C@@H](C)O)NC(=O)CNC(=O)[C@@H]2CSSC[C@@H]3NC(=O)[C@H](CCC(N)=O)NC(=O)[C@H](Cc4ccccc4)NC(=O)[C@H](C)NC(=O)[C@H]([C@@H](C)O)NC(=O)[C@H](CSSC[C@H](NC(=O)[C@H](Cc4ccccc4)NC(=O)[C@H](CO)NC(=O)[C@H](CC(C)C)NC(=O)[C@H](CCCNC(=N)N)NC(=O)[C@H](Cc4ccc(O)cc4)NC(=O)[C@H](CCCCN)NC(=O)[C@H](CCSC)NC(=O)[C@H](CO)NC(=O)[C@H](Cc4cnc[nH]4)NC(=O)[C@H](CCCNC(=N)N)NC3=O)C(=O)N[C@@H](CCCNC(=N)N)C(=O)N[C@@H](CCCCN)C(=O)N[C@@H]([C@@H](C)O)C(=O)N2)NC(=O)[C@H](CCCNC(=N)N)NC(=O)[C@H](CO)NC(=O)[C@H](CCCCN)NC(=O)[C@@H]2CCCN2C(=O)[C@H]([C@@H](C)CC)NC(=O)[C@H]([C@@H](C)O)NC(=O)[C@H](CC(=O)O)NC1=O
[1]
  IC50: 104 pM
[2]
  IC50: 38 pM
[3]
  IC50: 56 pM

## CC[C@H](C)[C@@H]1NC(=O)[C@@H](NC(=O)[C@H](CO)NC(=O)[C@@H](N)CCCNC(=N)N)CSSC[C@@H](C(=O)O)NC(=O)[C@H]([C@@H](C)O)NC(=O)CNC(=O)[C@@H]2CSSC[C@@H]3NC(=O)[C@H](CCC(N)=O)NC(=O)[C@H](Cc4ccccc4)NC(=O)[C@H](CCCCN)NC(=O)[C@H]([C@@H](C)O)NC(=O)[C@H](CSSC[C@H](NC(=O)[C@H](Cc4ccccc4)NC(=O)[C@H](CO)NC(=O)[C@H](CC(C)C)NC(=O)[C@H](CCCNC(=N)N)NC(=O)[C@H](Cc4ccc(O)cc4)NC(=O)[C@H](CCCCN)NC(=O)[C@H](CCSC)NC(=O)[C@H](CO)NC(=O)[C@H](Cc4cnc[nH]4)NC(=O)[C@H](CCCCN)NC3=O)C(=O)N[C@@H](CCCNC(=N)N)C(=O)N[C@@H](CCCCN)C(=O)N[C@@H]([C@@H](C)O)C(=O)N2)NC(=O)[C@H](CCCNC(=N)N)NC(=O)[C@H](CO)NC(=O)[C@H](CCCCN)NC(=O)[C@@H]2CCCN2C(=O)[C@H]([C@@H](C)CC)NC(=O)[C@H]([C@@H](C)O)NC(=O)[C@H](Cc2cccc3ccccc23)NC1=O (H-RSCI[1Nal]TIPKSRCTKFQCKHSMKYRLSFCRKTCGTC-OH; disulfide 3-35, 12-28, 17-32)
[1]
  IC50: 73 pM
[2]
  IC50: 75 pM
[3]
  IC50: 201 pM

## CC[C@H](C)[C@@H]1NC(=O)[C@@H](NC(=O)[C@H](CO)NC(=O)[C@@H](N)CCCNC(=N)N)CSSC[C@@H](C(=O)O)NC(=O)[C@H]([C@@H](C)O)NC(=O)CNC(=O)[C@@H]2CSSC[C@@H]3NC(=O)[C@H](CCC(N)=O)NC(=O)[C@H](Cc4ccccc4)NC(=O)[C@H](C)NC(=O)[C@H]([C@@H](C)O)NC(=O)[C@H](CSSC[C@H](NC(=O)[C@H](Cc4ccccc4)NC(=O)[C@H](CO)NC(=O)[C@H](CC(C)C)NC(=O)[C@H](CCCNC(=N)N)NC(=O)[C@H](CCCNC(=N)N)NC(=O)[C@H](CCCCN)NC(=O)[C@H](CCSC)NC(=O)[C@H](CO)NC(=O)[C@H](Cc4cnc[nH]4)NC(=O)[C@H](CCCCN)NC3=O)C(=O)N[C@@H](CCCNC(=N)N)C(=O)N[C@@H](CCCCN)C(=O)N[C@@H]([C@@H](C)O)C(=O)N2)NC(=O)[C@H](CCCNC(=N)N)NC(=O)[C@H](CO)NC(=O)[C@H](CCCCN)NC(=O)[C@@H]2CCCN2C(=O)[C@H]([C@@H](C)CC)NC(=O)[C@H]([C@@H](C)O)NC(=O)[C@H](CC(=O)O)NC1=O
[1]
  IC50: > 3330 pM
[2]
  IC50: > 100000 pM
[3]
  IC50: > 100000 pM

## CC[C@H](C)[C@@H]1NC(=O)[C@@H](NC(=O)[C@H](CO)NC(=O)[C@@H](N)CCCNC(=N)N)CSSC[C@@H](C(=O)O)NC(=O)[C@H]([C@@H](C)O)NC(=O)CNC(=O)[C@@H]2CSSC[C@@H]3NC(=O)[C@H](CCC(N)=O)NC(=O)[C@H](Cc4ccccc4)NC(=O)[C@H](C)NC(=O)[C@H]([C@@H](C)O)NC(=O)[C@H](CSSC[C@H](NC(=O)[C@H](Cc4ccccc4)NC(=O)[C@H](CO)NC(=O)[C@H](CC(C)C)NC(=O)[C@H](CCCNC(=N)N)NC(=O)[C@H](Cc4ccc(O)cc4)NC(=O)[C@H](CCCCN)NC(=O)[C@H](CCSC)NC(=O)[C@H](CO)NC(=O)[C@H](Cc4cnc[nH]4)NC(=O)[C@H](CCCCN)NC3=O)C(=O)N[C@@H](CCCNC(=N)N)C(=O)N[C@@H](CCCCN)C(=O)N[C@@H]([C@@H](C)O)C(=O)N2)NC(=O)[C@H](CCC(=O)O)NC(=O)[C@H](CO)NC(=O)[C@H](CCCCN)NC(=O)[C@@H]2CCCN2C(=O)[C@H]([C@@H](C)CC)NC(=O)[C@H]([C@@H](C)O)NC(=O)[C@H](CC(=O)O)NC1=O
[1]
  IC50: 983 pM
[2]
  IC50: 1320 pM
[3]
  IC50: 4540 pM

## CC[C@H](C)[C@@H]1NC(=O)[C@@H](NC(=O)[C@H](CO)NC(=O)[C@@H](N)CCCNC(=N)N)CSSC[C@@H](C(=O)O)NC(=O)[C@H]([C@@H](C)O)NC(=O)CNC(=O)[C@@H]2CSSC[C@@H]3NC(=O)[C@H](CCC(N)=O)NC(=O)[C@H](Cc4ccccc4)NC(=O)[C@H](C)NC(=O)[C@H](CCCNC(=N)N)NC(=O)[C@H](CSSC[C@H](NC(=O)[C@H](Cc4ccccc4)NC(=O)[C@H](CO)NC(=O)[C@H](CC(C)C)NC(=O)[C@H](CCCNC(=N)N)NC(=O)[C@H](Cc4ccc(O)cc4)NC(=O)[C@H](CCCCN)NC(=O)[C@H](CCSC)NC(=O)[C@H](CO)NC(=O)[C@H](Cc4cnc[nH]4)NC(=O)[C@H](CCCCN)NC3=O)C(=O)N[C@@H](CCCNC(=N)N)C(=O)N[C@@H](CCCCN)C(=O)N[C@@H]([C@@H](C)O)C(=O)N2)NC(=O)[C@H](CCCNC(=N)N)NC(=O)[C@H](CO)NC(=O)[C@H](CCCCN)NC(=O)[C@@H]2CCCN2C(=O)[C@H]([C@@H](C)CC)NC(=O)[C@H]([C@@H](C)O)NC(=O)[C@H](CC(=O)O)NC1=O
[1]
  IC50: 152 pM
[2]
  IC50: 398 pM
[3]
  IC50: 635 pM

## CC[C@H](C)[C@@H]1NC(=O)[C@@H](NC(=O)[C@H](CO)NC(=O)[C@@H](N)CCCNC(=N)N)CSSC[C@@H](C(=O)O)NC(=O)[C@H]([C@@H](C)O)NC(=O)CNC(=O)[C@@H]2CSSC[C@@H]3NC(=O)[C@H](CCC(N)=O)NC(=O)[C@H](Cc4ccccc4)NC(=O)[C@H](C)NC(=O)[C@H]([C@@H](C)O)NC(=O)[C@H](CSSC[C@H](NC(=O)[C@H](Cc4ccccc4)NC(=O)[C@H](CO)NC(=O)[C@H](CC(C)C)NC(=O)[C@H](CCCNC(=N)N)NC(=O)[C@H](Cc4ccc(O)cc4)NC(=O)[C@H](CCCCN)NC(=O)[C@H](CCSC)NC(=O)[C@H](CO)NC(=O)[C@H](Cc4c[nH]cn4)NC(=O)[C@H](CCCCN)NC3=O)C(=O)N[C@@H](CCCNC(=N)N)C(=O)N[C@@H](CCCCN)C(=O)N[C@@H]([C@@H](C)O)C(=O)N2)NC(=O)[C@H](CCCNC(=N)N)NC(=O)[C@H](CO)NC(=O)[C@H](CCCCN)NC(=O)[C@@H]2CCCN2C(=O)[C@H]([C@@H](C)CC)NC(=O)[C@H](Cc2cccc3ccccc23)NC(=O)[C@H](CC(=O)O)NC1=O
[1]
  IC50: 153 pM
[2]
  IC50: 860 pM
[3]
  IC50: 962 pM
